# Data: US20260035384A1, “COMPOUND CONTAINING CYCLOHEXYL” (CHIA TAI TIANQING PHARMACEUTICAL GROUP CO., LTD., priority 2022, published 2026)
# Positions count from the first letter of the chain named. Like-named read-outs stand apart in the source and are kept apart here.
# What was measured:
# Mouse pharmacokinetics = type: in vivo, ICR mice
# Description: ICR mice weighing 18-22 g were randomized into groups of 9 after 3-5 days of acclimatization, and then intragastrically given the test compound solution at a dose of 10 mg/kg and intravenously injected with the test compound solution at a dose of 1 mg/kg.
# Blood sampling time points for the intragastrical administration group were 15 min, 0.5 h, 1 h, 2 h, 3 h, 4 h, 6 h, 8 h, 10 h, and 24 h, and blood sampling time points for the intravenous injection administration group were […], 15 min, 0.5 h, 1 h, 2 h, 4 h, 6 h, 8 h, 10 h, and 24 h; blood was collected from the orbit to prepare plasma samples to be tested. 30 μL of each of the plasma samples to be tested and a standard curve sample were taken, and an acetonitrile solution containing an internal standard was added. Supernatants were obtained by protein precipitation, diluted, and then assayed by LC/MS/MS. Pharmacokinetic parameters were fitted using a non-compartmental model (see Table 6).
# [1] = In vitro stability in liver microsome; type: in vitro ADME; conditions: human liver microsome 0.5 mg/mL, NADPH, 37° C.
# Description: Liver microsome incubation samples (species: human, monkey, rat, and mouse) were prepared by mixing a PBS buffer (pH=7.4), a liver microsome solution (0.5 mg/mL), a test compound, and an NADPH+MgCl2 solution and incubated at 37° C. and 300 rpm for 1 h. Zero-hour samples were prepared by mixing a PBS buffer (pH=7.4), a liver microsome solution (0.5 mg/mL), and a test compound. An acetonitrile solution containing an internal standard was added to the samples, and supernatants were prepared by protein precipitation, diluted, and then assayed by LC/MS/MS.
# LNCaP cells = assay: Assay on inhibitory activity for LNCaP cell proliferation (CCK-8); type: cell-based; conditions: 168 h incubation
# Summary of the method: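 Cells seeded at 1×10^5 cells/mL in phenol red-free 1640 with 2% CSS-FBS, treated at final 10000 nM-0.61 nM in duplicate. After 168 h incubation, viability read with CCK-8.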
# VCaP cells = assay: Assay on inhibitory activity for VCaP cell proliferation (CCK-8); type: cell-based; conditions: 168 h incubation
# Summary of the method: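 VCaP cells seeded at 1×10^5 cells/mL in phenol red-free DMEM with 5% charcoal-stripped FBS, treated in duplicate at 10000–0.61 nM final. After 168 h incubation, viability was read with CCK-8.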
# AR in VCaP cells = biological target: T1, AR in VCaP cells (Homo sapiens, UniProt P10275); assay: Assay on degradation activity for AR in VCaP cells (HTRF human androgen receptor detection kit); type: cell-based; conditions: 24 h incubation
# T1 construct: Assay on Degradation Activity for AR in VCaP Cells; endogenous in cells; host or cells: VCaP cells
# T1 sequence (P10275 1-920): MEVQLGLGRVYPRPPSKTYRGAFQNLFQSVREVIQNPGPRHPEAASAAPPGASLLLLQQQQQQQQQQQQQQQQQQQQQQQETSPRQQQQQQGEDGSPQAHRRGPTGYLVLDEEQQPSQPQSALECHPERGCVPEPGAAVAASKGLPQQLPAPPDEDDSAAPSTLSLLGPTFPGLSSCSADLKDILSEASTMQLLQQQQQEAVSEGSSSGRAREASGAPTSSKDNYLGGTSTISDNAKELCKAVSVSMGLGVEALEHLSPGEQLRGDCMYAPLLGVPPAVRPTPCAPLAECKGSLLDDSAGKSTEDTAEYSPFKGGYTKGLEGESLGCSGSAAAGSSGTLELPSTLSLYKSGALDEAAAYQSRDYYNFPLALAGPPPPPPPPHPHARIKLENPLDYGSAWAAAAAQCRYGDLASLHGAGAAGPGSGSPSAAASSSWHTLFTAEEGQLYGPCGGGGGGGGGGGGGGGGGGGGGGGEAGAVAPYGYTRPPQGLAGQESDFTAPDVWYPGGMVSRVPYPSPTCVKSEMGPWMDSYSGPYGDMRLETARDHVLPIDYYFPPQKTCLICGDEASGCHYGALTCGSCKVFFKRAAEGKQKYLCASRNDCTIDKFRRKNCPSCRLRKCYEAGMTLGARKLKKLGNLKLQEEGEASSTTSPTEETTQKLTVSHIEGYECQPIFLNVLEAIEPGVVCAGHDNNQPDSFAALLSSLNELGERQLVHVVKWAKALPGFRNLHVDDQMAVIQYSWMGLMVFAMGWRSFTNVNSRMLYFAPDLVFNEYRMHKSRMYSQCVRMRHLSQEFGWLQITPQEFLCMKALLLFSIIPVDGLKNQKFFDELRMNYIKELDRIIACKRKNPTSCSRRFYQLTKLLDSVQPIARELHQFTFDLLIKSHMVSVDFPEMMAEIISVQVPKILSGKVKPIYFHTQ
# Description: The detection was carried out using the HTRF HUMAN ANDROGEN RECEPTOR DETECTION KIT (cisbio, 64ANDRPEG), 4× Supplemented Lysis buffer was prepared using the Blocking reagent stock solution (100×) and Lysis buffer stock solution (4×), and 1× Supplemented Lysis buffer was prepared using the 4× Supplemented Lysis buffer and ddH2O. Premixed antibody solutions were prepared using Detection buffer, Androgen Receptor Eu Cryptate antibody, and Androgen Receptor d2 antibody.
# VCaP cells in a good growth state were taken, washed with PBS, digested with pancreatin, and added with 2% CSS—FBS phenol red-free DMEM complete medium to terminate the digestion. The cells were collected by using a centrifuge tube, adjusted to a cell density of 1×10^6 cells/mL, and seeded in a 96-well plate (100 µL/well). The cells were incubated overnight in a cell incubator. Compounds were added using a nanoliter pipettor such that the final concentrations of the compounds were 1000 nM-0.977 nM. Two duplicate wells were set for each concentration, and meanwhile, a control was set. After another 24 h of incubation in the cell incubator, the medium was pipetted out, the 1× Supplemented Lysis buffer was added at 40 μL/well to lyse the cells. After the cells were oscillated for 40 min at room temperature, 16 μL of the cell lysate was added to a 384-well plate, the Premixed antibody solutions were added at 4 μL/well, and the mixture was left to stand at 25° C. for 2 h. Fluorescence values were detected at 665 nm/620 nm using an Envision microplate reader, the four-parameter analysis was performed, the dose-response curves were fit, and DC50 (the concentration of the drug when the degradation rate reaches 50%) and Dmax (the maximum degradation rate) were calculated.
# AR in LNCaP cells = biological target: T2, AR in LNCaP cells (Homo sapiens, UniProt P10275, T878A); assay: Assay on degradation activity for AR in LNCaP cells (HTRF human androgen receptor detection kit); type: cell-based; conditions: 24 h incubation; for DC50: HTRF; for Dmax: maximum degradation rate
# T2 construct: Assay on Degradation Activity for AR in LNCaP Cells; endogenous in cells; host or cells: LNCaP cells
# T2 sequence (P10275 1-920 T878A): T1 sequence (P10275 1-920) with T878A
# Summary of the method: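 LNCaP cells seeded in 2% CSS-FBS phenol red-free 1640 medium overnight, then treated in duplicate with 500 nM–0.488 nM compound for 24 h. AR in lysates quantified by HTRF (Eu cryptate/d2 antibodies, 2 h, 25 °C, 665/620 nm); DC50 and Dmax from four-parameter fits.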
# [2] = ICR, mouse, plasma, iv, 1 mg/kg, Mouse i.v. 1 mpk
# [3] = ICR, mouse, plasma, iv, 1 mg/kg, Mouse i.v. 1 mpk, read-out: AUC
# [4] = ICR, mouse, plasma, po, 10 mg/kg, Mouse i.g. 10 mpk
# [5] = ICR, mouse, plasma, po, 10 mg/kg, Mouse i.g. 10 mpk vs i.v. 1 mpk
# [6] = ICR, mouse, plasma, po, 10 mg/kg, Mouse i.g. 10 mpk, read-out: AUC
# [7] = ICR, mouse, plasma, po, 10 mg/kg, Mouse i.g. 10 mpk, read-out: Cmax
compound,measurement,setting,value
N#Cc1ccc(O[C@H]2CC[C@H](NC(=O)c3ccc(N4CCC(CN5Cc6ccc7c(C8CCC(=O)NC8=O)noc7c6C5)CC4)nn3)CC2)cc1Cl (stereo partly shown) [Compound 17],clearance,Mouse pharmacokinetics; [2],4.72 mL/min/kg
same,half-life,Mouse pharmacokinetics; [2],7.28 h
same,AUC,Mouse pharmacokinetics; [3],3160 ng·h/mL
same,half-life,Mouse pharmacokinetics; [4],6.82 h
same,bioavailability,Mouse pharmacokinetics; [5],46%
same,AUC,Mouse pharmacokinetics; [6],14600 ng·h/mL
same,Cmax,Mouse pharmacokinetics; [7],1160 ng/mL
same,Human liver microsome Residuals at 60 min (%),[1],>85%
same,IC50,LNCaP cells; Homo sapiens,< 1000 nM
same,IC50,"VCaP cells; Homo sapiens, VCaP, 168 h",< 1000 nM
same,DC50,AR in VCaP cells,≤ 1 nM
N#Cc1ccc(O[C@H]2CC[C@H](NC(=O)c3ccc(N4CCC(CN5CCc6ccc7c(C8CCC(=O)NC8=O)noc7c6C5)CC4)nn3)CC2)cc1Cl (stereo partly shown) [Compound 18],clearance,Mouse pharmacokinetics; [2],2.7 mL/min/kg
same,AUC,Mouse pharmacokinetics; [3],5930 ng·h/mL
same,half-life,Mouse pharmacokinetics; [4],5.52 h
same,bioavailability,Mouse pharmacokinetics; [5],31%
same,AUC,Mouse pharmacokinetics; [6],18400 ng·h/mL
same,Cmax,Mouse pharmacokinetics; [7],1200 ng/mL
same,Human liver microsome Residuals at 60 min (%),[1],>85%
same,IC50,LNCaP cells; Homo sapiens,< 1000 nM
same,DC50,AR in LNCaP cells,≤ 20 nM
same,Dmax,AR in LNCaP cells,> 80%
N#Cc1ccc(O[C@H]2CC[C@H](NC(=O)c3ccc(N4CCC(CN5CC6(Cc7ccc8c(C9CCC(=O)NC9=O)noc8c7C6)C5)CC4)nn3)CC2)cc1Cl (stereo partly shown) [Compound 21],Human liver microsome Residuals at 60 min (%),[1],>85%
same,IC50,LNCaP cells; Homo sapiens,< 1000 nM
N#Cc1ccc(O[C@H]2CC[C@H](NC(=O)c3ccc(N4CCN(CC5Cc6ccc7c(C8CCC(=O)NC8=O)noc7c6C5)CC4)nn3)CC2)cc1Cl (stereo partly shown) [Compound 26],clearance,Mouse pharmacokinetics; [2],2.78 mL/min/kg
same,half-life,Mouse pharmacokinetics; [2],7.58 h
same,AUC,Mouse pharmacokinetics; [3],5350 ng·h/mL
same,bioavailability,Mouse pharmacokinetics; [5],24.8%
same,AUC,Mouse pharmacokinetics; [6],13200 ng·h/mL
same,Cmax,Mouse pharmacokinetics; [7],886 ng/mL
same,t1/2,Mouse pharmacokinetics; Mouse i.g. 10 mpk,11 h
same,Human liver microsome Residuals at 60 min (%),[1],>85%
same,IC50,LNCaP cells; Homo sapiens,< 1000 nM
same,IC50,"VCaP cells; Homo sapiens, VCaP, 168 h",< 100 nM
same,DC50,AR in VCaP cells,≤ 1 nM
N#Cc1ccc(O[C@H]2CC[C@H](NC(=O)c3ccc(N4CCN(CC5Cc6ccc7c(C8CCC(=O)NC8=O)noc7c6C5)CC4)nn3)CC2)cc1Cl (stereo partly shown) [Compound 27],AUC,Mouse pharmacokinetics; Mouse i.g. 10 mpk,20072 ng·h/mL
same,Cmax,Mouse pharmacokinetics; Mouse i.g. 10 mpk,1503 ng/mL
same,t1/2,Mouse pharmacokinetics; Mouse i.g. 10 mpk,5.47 h
same,F(%),Mouse pharmacokinetics; Mouse i.g. 10 mpk vs i.v. 1 mpk,35.85%
same,AUC,"Mouse pharmacokinetics; Mouse i.v. 1 mpk, 1 mg/kg",5599 ng·h/mL
same,Cl,"Mouse pharmacokinetics; Mouse i.v. 1 mpk, 1 mg/kg",2.63 mL/min/kg
same,t1/2,"Mouse pharmacokinetics; Mouse i.v. 1 mpk, 1 mg/kg",7.6 h
same,Human liver microsome Residuals at 60 min (%),[1],>85%
same,IC50,LNCaP cells,< 1000 nM
same,IC50,VCaP cells,< 100 nM
same,DC50,AR in VCaP cells,≤ 1 nM
N#Cc1ccc(O[C@H]2CC[C@H](NC(=O)c3ccc(N4CCC5(CC4)CC(CN4Cc6ccc7c(C8CCC(=O)NC8=O)noc7c6C4)C5)nn3)CC2)cc1Cl.O=C(O)/C=C\C(=O)O (stereo partly shown) [Compound 34],Human liver microsome Residuals at 60 min (%),[1],>85%
same,IC50,LNCaP cells; Homo sapiens,< 1000 nM
same,Dmax,AR in LNCaP cells,> 80%
same,IC50,VCaP cells; Homo sapiens,< 100 nM
N#Cc1ccc(O[C@H]2CC[C@H](NC(=O)c3ccc(C4CCN(CC5CN(c6cc7onc(C8CCC(=O)NC8=O)c7c7ccccc67)C5)CC4)nn3)CC2)cc1Cl (stereo partly shown) [Compound 47],Human liver microsome Residuals at 60 min (%),[1],>85%
same,DC50,AR in LNCaP cells,≤ 20 nM
same,Dmax,AR in LNCaP cells,> 80%
same,IC50,VCaP cells; Homo sapiens,< 10 nM
N#Cc1ccc(O[C@H]2CC[C@H](NC(=O)c3ccc(N4CCC(N5CC(N6Cc7ccc8c(C9CCC(=O)NC9=O)noc8c7C6)C5)CC4)nn3)CC2)cc1Cl (stereo partly shown) [Compound 94],Human liver microsome Residuals at 60 min (%),[1],>85%
same,IC50,LNCaP cells; Homo sapiens,< 1000 nM
same,IC50,VCaP cells; Homo sapiens,< 100 nM
same,DC50,AR in VCaP cells,≤ 1 nM
N#Cc1ccc(O[C@H]2CC[C@H](NC(=O)c3cnc(N4CCC(CN5Cc6ccc7c(C8CCC(=O)NC8=O)noc7c6C5)CC4)nc3)CC2)cc1Cl (stereo partly shown) [Compound 119],clearance,Mouse pharmacokinetics; [2],5.8 mL/min/kg
same,half-life,Mouse pharmacokinetics; [2],11.5 h
same,AUC,Mouse pharmacokinetics; [3],2720 ng·h/mL
same,half-life,Mouse pharmacokinetics; [4],8.6 h
same,bioavailability,Mouse pharmacokinetics; [5],39%
same,AUC,Mouse pharmacokinetics; [6],10600 ng·h/mL
same,Cmax,Mouse pharmacokinetics; [7],559 ng/mL
same,Human liver microsome Residuals at 60 min (%),[1],>85%
same,IC50,LNCaP cells; Homo sapiens,< 1000 nM
same,IC50,"VCaP cells; Homo sapiens, VCaP, 168 h",< 100 nM
